Test results: patent US8946203B2, “Benzodioxane inhibitors of leukotriene production” (Boehringer Ingelheim International GmbH, priority 2012, dated 2015)

Molecular target: T1, human LTA4 hydrolase (Homo sapiens, UniProt P09960)
T1 sequence (P09960 1-611): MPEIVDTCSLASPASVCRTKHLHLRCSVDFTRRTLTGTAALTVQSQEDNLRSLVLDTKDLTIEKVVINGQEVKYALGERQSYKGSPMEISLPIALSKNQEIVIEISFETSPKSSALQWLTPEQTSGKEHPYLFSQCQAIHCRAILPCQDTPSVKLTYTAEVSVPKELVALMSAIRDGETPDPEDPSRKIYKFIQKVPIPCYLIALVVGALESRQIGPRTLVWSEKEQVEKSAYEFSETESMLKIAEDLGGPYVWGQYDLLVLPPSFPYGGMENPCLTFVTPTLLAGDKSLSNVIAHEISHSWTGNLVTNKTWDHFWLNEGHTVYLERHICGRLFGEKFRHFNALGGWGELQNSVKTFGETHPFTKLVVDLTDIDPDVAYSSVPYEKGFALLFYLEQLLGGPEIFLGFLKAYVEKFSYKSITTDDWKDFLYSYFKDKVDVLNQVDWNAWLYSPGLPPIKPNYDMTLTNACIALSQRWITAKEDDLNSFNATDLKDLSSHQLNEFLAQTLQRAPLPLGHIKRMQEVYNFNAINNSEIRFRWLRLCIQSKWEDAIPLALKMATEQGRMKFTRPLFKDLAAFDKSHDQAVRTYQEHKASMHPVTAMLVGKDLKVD
Test: LTA4H Enzyme assay (cleavage of Arg-AMC, fluorescence)
Assay type: biochemical
Details: LTA4H Enzyme 1 nM, Arg-AMC substrate 50 μM, room temperature 1 h, fluorescence; read-out: IC50 values of LTA4H Enzyme assay
Summary of the method: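 Aminomethylcoumarin release measured fluorimetrically (380/460 nm) after 1 h at room temperature. Reaction: 1 nM final enzyme, 50 μM final Arg-AMC and compound in Tris-HCl pH 7.5 with 100 mM KCl and 0.5% BSA.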

Structure (SMILES)	IC50
OC(C1CCN(Cc2ccc([C@H]3COc4ccccc4O3)cc2)CC1)(C(F)(F)F)C(F)(F)F [Example 22, 2-(1-{4-[(2S)-2,3-dihydro-1,4-benzodioxin-2-yl]benzyl}piperidin-4-yl)-1,1,1,3,3,3-hexafluoropropan-2-ol]	200 nM
CN1CC(NCc2ccc([C@H]3COc4ccccc4O3)cc2)CCC1=O (stereo partly drawn) [Example 108, 5-({4-[(2S)-2,3-dihydro-1,4-benzodioxin-2-yl]benzyl}amino)-1-methylpiperidin-2-one]	0.87 nM
c1ccc2c(c1)OCC(c1ccc(CN3CCOCC3)cc1)O2 (racemic) [Example 2, 4-[4-(2,3-dihydro-1,4-benzodioxin-2-yl)benzyl]morpholine]	2.45 nM
O=C1NCCC12CCN(Cc1ccc([C@H]3COc4ccccc4O3)cc1)CC2 (single isomer, unassigned) [Example 194]	0.15 nM
O=C(CNCc1ccc(C2COc3ccccc3O2)cc1)N1CCCC1 (racemic) [Example 12, 2-{[4-(2,3-dihydro-1,4-benzodioxin-2-yl)benzyl]amino}-1-(pyrrolidin-1-yl)ethanone]	10.2 nM
O=C(O)CCCC1CCN(Cc2ccc([C@H]3COc4ccccc4O3)cc2)CC1 [Example 181, 4-(1-{4-[(2S)-2,3-dihydro-1,4-benzodioxin-2-yl]benzyl}piperidin-4-yl)butanoic acid]	0.042 nM
O=C(O)C1CCCN(Cc2ccc(C3COc4ccccc4O3)cc2)C1 (racemic) [Example 113, 1-[4-(2,3-dihydro-1,4-benzodioxin-2-yl)benzyl]piperidine-3-carboxylic acid]	2.49 nM
O=C(O)[C@H]1CC[C@@H](NCc2ccc([C@H]3COc4ccccc4O3)cc2)C1 [Example 191, (1S,3R)-3-({4-[(2S)-2,3-dihydro-1,4-benzodioxin-2-yl]benzyl}amino)cyclopentane-carboxylic acid]	1.62 nM
N#CC1CCN(Cc2ccc([C@H]3COc4ccccc4O3)cc2)CC1 [Example 177, 1-{4-[(2S)-2,3-dihydro-1,4-benzodioxin-2-yl]benzyl}piperidine-4-carbonitrile]	1.45 nM
O[C@@H]1CCN(Cc2ccc(C3COc4ccccc4O3)cc2)C1 (mixture of isomers) [Example 34, (3R)-1-[4-(2,3-dihydro-1,4-benzodioxin-2-yl)benzyl]pyrrolidin-3-ol]	1.89 nM
O=C(O)C[C@H]1CCN(Cc2ccc([C@H]3COc4ccccc4O3)cc2)C1 [Example 184, [(3R)-1-{4-[(2S)-2,3-dihydro-1,4-benzodioxin-2-yl]benzyl}pyrrolidin-3-yl]acetic acid]	0.11 nM
c1ccc2c(c1)OCC(c1ccc(CN3CCn4cnnc4C3)cc1)O2 (racemic) [Example 16, 7-[4-(2,3-dihydro-1,4-benzodioxin-2-yl)benzyl]-5,6,7,8-tetrahydro[1,2,4]triazolo[4,3-a]pyrazine]	2.32 nM
O=C(O)[C@H]1CCCN(Cc2ccc([C@H]3COc4ccccc4O3)cc2)C1 [Example 20, (3S)-1-{4-[(2S)-2,3-dihydro-1,4-benzodioxin-2-yl]benzyl}piperidin-3-carboxylic acid]	1.3 nM
CS(=O)(=O)NC1CCN(Cc2ccc([C@H]3COc4ccccc4O3)cc2)CC1 [Example 176, N-(1-{4-[(2S)-2,3-dihydro-1,4-benzodioxin-2-yl]benzyl}piperidin-4-yl)methanesulfonamide]	0.24 nM
O=C1NCCC12CCN(Cc1ccc([C@@H]3COc4ccccc4O3)cc1)CC2 (single isomer, unassigned) [Example 195]	1.59 nM
OC1CCN(Cc2ccc([C@H]3COc4ccccc4O3)cc2)CC1 (single isomer, unassigned) [Example 192]	0.43 nM
CS(=O)(=O)C1CCN(Cc2ccc([C@H]3COc4cccnc4O3)cc2)CC1 [Example 172, (3S)-3-(4-{[4-(methylsulfonyl)piperidin-1-yl]methyl}phenyl)-2,3-dihydro[1,4]dioxin[2,3-b]pyridine]	0.53 nM
